From patent US9763445B2, “Safened herbicidal compositions comprising a pyridine carboxylic acid herbicide” (Dow AgroSciences, LLC, priority 2014, dated 2017)

Legend:
[1] = system: lambsquarters (CHEAL); experiment: Postemergence greenhouse trial, % visual injury on lambsquarters; format: in vivo, Chenopodium album; details: for % visual injury, observed (Ob): CHEAL
Method in brief: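 Plants at second or third true leaf stage, greenhouse-grown (14 h photoperiod, ~23/22° C.), sprayed postemergence with compounds alone or with safener cloquintocet-mexyl in 1.5% v/v Agri-dex crop oil at 187 L/ha. Visual injury scored 0–100% versus solvent-blank controls after 20-22 d; expected mixture effects by Colby's equation.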

[2] = system: kochia (KCHSC); experiment: Postemergence greenhouse trial, % visual injury on kochia; format: in vivo, Kochia scoparia; details: for % visual injury, Ob / % visual injury, observed (Ob): KCHSC
Method in brief: (§1)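 Herbicide rates g ae/ha, safener (cloquintocet-mexyl) rates g ai/ha; spray carrier 1.5% v/v crop oil concentrate, 187 L/ha, 2nd–3rd leaf stage. Rating: visual % injury at 20-22 d.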

[3] = system: wild mustard (SINAR); experiment: Postemergence greenhouse trial, % visual injury on wild mustard; format: in vivo, Sinapis arvensis; details: for % visual injury, Ob / % visual injury, observed (Ob): SINAR
Method in brief: as §1

[4] = compound 8 0 + CQC-m 4.375 g/ha
[5] = compound 0 g/ha, CQC-m 4.375 g/ha
[6] = compound 0 g/ha, CQC-m 8.75 g/ha
[7] = compound 0 g/ha, CQC-m 17.5 g/ha

CCCCCC(C)OC(=O)COc1ccc(Cl)c2cccnc12 (stereo not drawn) [CQC-m, cloquintocet-mexyl, reference compound]
0%: % visual injury, observed (Ob) [1, 4] | % visual injury, observed (Ob) ([1]; compound 8 0 + CQC-m 8.75 g/ha) | % visual injury, observed (Ob) ([1]; compound 8 0 + CQC-m 17.5 g/ha) | % visual injury, observed (Ob) ([1]; compound 8 0 + CQC-m 35 g/ha) | % visual injury, observed (Ob) ([1]; compound 8 0 + CQC-m 70 g/ha) | pest or weed control at 4.375 g/ha ([1]; Chenopodium album, post-emergence, alone, 4.375 g/ha, read-out: % visual injury, Ob) | pest or weed control at 8.75 g/ha ([1]; Chenopodium album, post-emergence, alone, 8.75 g/ha, read-out: % visual injury, Ob) | pest or weed control at 17.5 g/ha ([1]; Chenopodium album, post-emergence, alone, 17.5 g/ha, read-out: % visual injury, Ob) | pest or weed control at 20 g/ha ([1]; Chenopodium album, post-emergence, alone, 20 g/ha, read-out: % visual injury, Ob) | pest or weed control at 35 g/ha ([1]; Chenopodium album, post-emergence, alone, 35 g/ha, read-out: % visual injury, Ob) | pest or weed control at 40 g/ha ([1]; Chenopodium album, post-emergence, alone, 40 g/ha, read-out: % visual injury, Ob) | pest or weed control at 70 g/ha ([1]; Chenopodium album, post-emergence, alone, 70 g/ha, read-out: % visual injury, Ob) | pest or weed control at 80 g/ha ([1]; Chenopodium album, post-emergence, alone, 80 g/ha, read-out: % visual injury, Ob) | pest or weed control at 4.375 g/ha ([2]; Bassia scoparia, post-emergence, alone, 4.375 g/ha, read-out: % visual injury, Ob) | pest or weed control at 8.75 g/ha ([2]; Bassia scoparia, post-emergence, alone, 8.75 g/ha, read-out: % visual injury, Ob) | pest or weed control at 17.5 g/ha ([2]; Bassia scoparia, post-emergence, alone, 17.5 g/ha, read-out: % visual injury, Ob) | pest or weed control at 20 g/ha ([2]; Bassia scoparia, post-emergence, alone, 20 g/ha, read-out: % visual injury, Ob) | pest or weed control at 35 g/ha ([2]; Bassia scoparia, post-emergence, alone, 35 g/ha, read-out: % visual injury, Ob) | pest or weed control at 40 g/ha ([2]; Bassia scoparia, post-emergence, alone, 40 g/ha, read-out: % visual injury, Ob) | pest or weed control at 70 g/ha ([2]; Bassia scoparia, post-emergence, alone, 70 g/ha, read-out: % visual injury, Ob) | pest or weed control at 80 g/ha ([2]; Bassia scoparia, post-emergence, alone, 80 g/ha, read-out: % visual injury, Ob) | % visual injury, Ob ([2]; 4.375 g/ha, applied alone) | % visual injury, Ob ([2]; 8.75 g/ha, applied alone) | % visual injury, Ob ([2]; 17.5 g/ha, applied alone) | % visual injury, Ob ([2]; 35 g/ha, applied alone) | % visual injury, Ob ([2]; 70 g/ha, applied alone) | % visual injury, Ob ([2]; compound 0, CQC-m 4.375 g/ha) | % visual injury, Ob ([2]; compound 0, CQC-m 8.75 g/ha) | % visual injury, Ob ([2]; compound 0, CQC-m 17.5 g/ha) | % visual injury, Ob ([2]; compound 0, CQC-m 35 g/ha) | % visual injury, Ob ([2]; compound 0, CQC-m 70 g/ha) | % visual injury, Ob [2, 5] | % visual injury, Ob [2, 6] | % visual injury, Ob [2, 7] | % visual injury, Ob ([2]; compound 0 g/ha, CQC-m 35 g/ha) | % visual injury, Ob ([2]; compound 0 g/ha, CQC-m 70 g/ha) | % visual injury, observed (Ob) [2, 4] | % visual injury, observed (Ob) ([2]; compound 8 0 + CQC-m 8.75 g/ha) | % visual injury, observed (Ob) ([2]; compound 8 0 + CQC-m 17.5 g/ha) | % visual injury, observed (Ob) ([2]; compound 8 0 + CQC-m 35 g/ha) | % visual injury, observed (Ob) ([2]; compound 8 0 + CQC-m 70 g/ha) | pest or weed control at 4.375 g/ha ([3]; Brassica, post-emergence, alone, 4.375 g/ha, read-out: % visual injury, Ob) | pest or weed control at 8.75 g/ha ([3]; Brassica, post-emergence, alone, 8.75 g/ha, read-out: % visual injury, Ob) | pest or weed control at 17.5 g/ha ([3]; Brassica, post-emergence, alone, 17.5 g/ha, read-out: % visual injury, Ob) | pest or weed control at 35 g/ha ([3]; Brassica, post-emergence, alone, 35 g/ha, read-out: % visual injury, Ob) | pest or weed control at 70 g/ha ([3]; Brassica, post-emergence, alone, 70 g/ha, read-out: % visual injury, Ob) | % visual injury, Ob ([3]; 4.375 g/ha, applied alone) | % visual injury, Ob ([3]; 8.75 g/ha, applied alone) | % visual injury, Ob ([3]; 17.5 g/ha, applied alone) | % visual injury, Ob ([3]; 35 g/ha, applied alone) | % visual injury, Ob ([3]; 70 g/ha, applied alone) | % visual injury, Ob ([3]; compound 0, CQC-m 4.375 g/ha) | % visual injury, Ob ([3]; compound 0, CQC-m 8.75 g/ha) | % visual injury, Ob ([3]; compound 0, CQC-m 17.5 g/ha) | % visual injury, Ob ([3]; compound 0, CQC-m 35 g/ha) | % visual injury, Ob ([3]; compound 0, CQC-m 70 g/ha) | % visual injury, Ob [3, 5] | % visual injury, Ob [3, 6] | % visual injury, Ob [3, 7] | % visual injury, Ob ([3]; compound 0 g/ha, CQC-m 35 g/ha) | % visual injury, Ob ([3]; compound 0 g/ha, CQC-m 70 g/ha) | % visual injury, observed (Ob) [3, 4] | % visual injury, observed (Ob) ([3]; compound 8 0 + CQC-m 8.75 g/ha) | % visual injury, observed (Ob) ([3]; compound 8 0 + CQC-m 17.5 g/ha) | % visual injury, observed (Ob) ([3]; compound 8 0 + CQC-m 35 g/ha) | % visual injury, observed (Ob) ([3]; compound 8 0 + CQC-m 70 g/ha)
